Assays:
PIK3CB (Human) = PIK3CB (Human) (UniProt P42338)
PIK3CA (human) = PIK3CA (human) (UniProt P42336)
Chain of PIK3CA (human) (P42336 whole entry, looked up): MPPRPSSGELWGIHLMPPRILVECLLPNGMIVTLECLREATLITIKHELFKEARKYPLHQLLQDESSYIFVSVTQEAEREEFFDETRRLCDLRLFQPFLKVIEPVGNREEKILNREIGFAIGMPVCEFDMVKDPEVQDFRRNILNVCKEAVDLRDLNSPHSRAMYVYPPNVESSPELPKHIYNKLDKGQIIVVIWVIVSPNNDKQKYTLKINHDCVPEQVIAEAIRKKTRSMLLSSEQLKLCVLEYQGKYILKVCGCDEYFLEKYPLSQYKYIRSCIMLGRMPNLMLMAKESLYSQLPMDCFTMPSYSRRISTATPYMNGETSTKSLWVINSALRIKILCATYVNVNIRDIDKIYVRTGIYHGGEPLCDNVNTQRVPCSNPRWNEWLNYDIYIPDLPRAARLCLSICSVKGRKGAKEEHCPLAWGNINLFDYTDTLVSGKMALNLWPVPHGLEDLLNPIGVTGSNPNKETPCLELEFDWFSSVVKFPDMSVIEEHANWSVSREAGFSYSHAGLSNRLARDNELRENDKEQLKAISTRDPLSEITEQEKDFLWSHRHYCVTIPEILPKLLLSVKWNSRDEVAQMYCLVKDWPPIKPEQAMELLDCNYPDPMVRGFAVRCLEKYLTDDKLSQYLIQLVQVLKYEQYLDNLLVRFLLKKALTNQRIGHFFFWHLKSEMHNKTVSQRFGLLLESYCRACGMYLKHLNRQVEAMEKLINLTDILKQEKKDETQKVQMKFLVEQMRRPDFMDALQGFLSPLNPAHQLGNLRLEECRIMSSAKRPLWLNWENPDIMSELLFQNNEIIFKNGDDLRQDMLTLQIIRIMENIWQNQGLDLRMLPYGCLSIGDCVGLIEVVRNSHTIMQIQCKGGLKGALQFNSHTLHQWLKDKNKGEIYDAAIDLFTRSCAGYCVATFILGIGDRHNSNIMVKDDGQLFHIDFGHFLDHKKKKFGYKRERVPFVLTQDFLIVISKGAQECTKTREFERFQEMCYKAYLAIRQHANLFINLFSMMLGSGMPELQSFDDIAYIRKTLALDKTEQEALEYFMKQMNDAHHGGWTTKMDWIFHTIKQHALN

Chain of PIK3CB (Human) (P42338 whole entry, looked up): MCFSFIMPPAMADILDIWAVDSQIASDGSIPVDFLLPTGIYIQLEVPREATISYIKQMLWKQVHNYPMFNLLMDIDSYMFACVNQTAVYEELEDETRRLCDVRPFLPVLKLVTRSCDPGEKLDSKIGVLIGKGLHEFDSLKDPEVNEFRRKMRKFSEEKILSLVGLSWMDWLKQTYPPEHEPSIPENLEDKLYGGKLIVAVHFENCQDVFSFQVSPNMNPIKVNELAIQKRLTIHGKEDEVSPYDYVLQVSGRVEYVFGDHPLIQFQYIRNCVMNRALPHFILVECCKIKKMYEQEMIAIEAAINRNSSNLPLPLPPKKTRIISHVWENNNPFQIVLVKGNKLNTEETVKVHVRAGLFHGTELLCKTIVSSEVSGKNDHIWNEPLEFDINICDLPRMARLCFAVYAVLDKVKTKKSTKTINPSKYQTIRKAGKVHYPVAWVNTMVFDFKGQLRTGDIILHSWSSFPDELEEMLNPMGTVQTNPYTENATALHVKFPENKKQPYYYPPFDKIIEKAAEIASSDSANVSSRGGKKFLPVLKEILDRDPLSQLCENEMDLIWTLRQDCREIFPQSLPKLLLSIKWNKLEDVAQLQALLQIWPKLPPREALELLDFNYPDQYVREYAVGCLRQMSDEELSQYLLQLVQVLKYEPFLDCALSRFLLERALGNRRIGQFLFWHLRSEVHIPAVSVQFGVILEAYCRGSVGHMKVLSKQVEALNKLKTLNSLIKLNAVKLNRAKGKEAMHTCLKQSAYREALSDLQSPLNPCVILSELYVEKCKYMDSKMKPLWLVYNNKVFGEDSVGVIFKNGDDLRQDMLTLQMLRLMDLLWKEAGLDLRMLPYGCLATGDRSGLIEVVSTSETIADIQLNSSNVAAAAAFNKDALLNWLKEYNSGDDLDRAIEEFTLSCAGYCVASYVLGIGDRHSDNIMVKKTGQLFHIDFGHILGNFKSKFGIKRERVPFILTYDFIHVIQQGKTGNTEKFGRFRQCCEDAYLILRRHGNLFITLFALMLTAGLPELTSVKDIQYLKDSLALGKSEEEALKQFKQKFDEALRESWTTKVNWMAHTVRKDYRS

SMILES: Cc1ccc(S(=O)(=O)NCC(C)(C)O)cc1-c1cnc(N)c(-c2cnc(C3CC3)o2)c1
- IC50 (PIK3CB (Human)): 1300 nM
- IC50 (PIK3CA (human)): 280 nM

— the Kinase Knowledgebase extract (Sharma et al. 2016)
